Active and inactive are the calls of the source.
What was measured:
[1] = molecular target: Actin, cytoplasmic 1 (Homo sapiens) (UniProt P60709); assay: Inhibition of actin organization in human MCF7 cells transfected with GFP-tagged human beta-actin assessed as formation of actin aggregates at 300 to 500 nM after 24 hrs by FRAP method; assay type: cell-based
[2] = molecular target: Actin, cytoplasmic 1 (Homo sapiens) (UniProt P60709); assay: Inhibition of actin organization in human MDA-MB-231 cells transfected with GFP-tagged human beta-actin assessed as formation of actin aggregates at 300 to 500 nM after 24 hrs by FRAP method; assay type: cell-based
MCF7 [3] = assay: Induction of apoptosis in human MCF7 cells assessed as reduction of pro-caspase9 level after 48 hrs by Western blot analysis; assay type: functional, cell-based
[4] = molecular target: Actin, cytoplasmic 1 (Homo sapiens) (UniProt P60709); assay: Inhibition of actin organization in human MCF7 cells transfected with GFP-tagged human beta-actin assessed as reduction of g-actin monomers at 100 nM after 30 mins by FRAP method; assay type: cell-based
MDA-MB-231 [5] = assay: Induction of apoptosis in human MDA-MB-231 cells assessed as PARP cleavage after 48 hrs by Western blot analysis; assay type: functional, cell-based
[6] = molecular target: Actin, cytoplasmic 1 (Homo sapiens) (UniProt P60709); assay: Inhibition of actin organization in human MDA-MB-231 cells transfected with GFP-tagged human beta-actin assessed as reduction of actin stress fibers at 100 nM after 24 hrs by FRAP method; assay type: cell-based
MCF7 [7] = assay: Induction of apoptosis in human MCF7 cells after 24 hrs using propidium iodide by flow cytometry; assay type: functional, cell-based
MCF7 [8] = assay: Induction of apoptosis in human MCF7 cells assessed as PARP cleavage after 48 hrs by Western blot analysis; assay type: functional, cell-based
MDA-MB-231 [9] = assay: Antiproliferative activity against human MDA-MB-231 cells after 72 hrs by CellTiter-Blue assay; assay type: functional, cell-based
[10] = molecular target: Actin, cytoplasmic 1 (Homo sapiens) (UniProt P60709); assay: Inhibition of actin organization in human MCF7 cells transfected with GFP-tagged human beta-actin assessed as formation of actin aggregates at 300 nM after 30 mins by FRAP method; assay type: cell-based
[11] = molecular target: Actin, cytoplasmic 1 (Homo sapiens) (UniProt P60709); assay: Inhibition of actin organization in human MCF7 cells transfected with GFP-tagged human beta-actin assessed as reduction of actin stress fibers at 100 nM after 24 hrs by FRAP method; assay type: cell-based
MCF7 [12] = assay: Antiproliferative activity against human MCF7 cells after 72 hrs by CellTiter-Blue assay; assay type: functional, cell-based
MDA-MB-231 [13] = assay: Induction of apoptosis in human MDA-MB-231 cells assessed as reduction of pro-caspase9 level after 48 hrs by Western blot analysis; assay type: functional, cell-based
MDA-MB-231 [14] = assay: Induction of apoptosis in human MDA-MB-231 cells after 24 hrs using propidium iodide by flow cytometry; assay type: functional, cell-based
MDA-MB-231 [15] = assay: Antimigratory activity against human MDA-MB-231 cells up to 10 hrs; assay type: functional, cell-based

CC(C)[C@@H]1C[C@H](O)[C@H](C)C[C@H](C)C[C@H](C)C(=O)NCC(=O)N(C)[C@H](Cc2ccc(O)c(I)c2)C(=O)O1
77 nM: IC50 (MDA-MB-231 [9]; MDA-MB-231, 72 h)
active: inhibition [1] | inhibition [2] | Activity (MCF7 [3]) Dose-dependent effect | inhibition [4] | Activity (MDA-MB-231 [5]) | inhibition [6] | Activity (MCF7 [7]) Dose-dependent effect | Activity (MCF7 [8]) | inhibition (MDA-MB-231 [9]) Dose-dependent effect | inhibition [10] | inhibition [11] | inhibition (MCF7 [12]) Dose-dependent effect | Activity (MDA-MB-231 [13]) Dose-dependent effect | Activity (MDA-MB-231 [14]) Dose-dependent effect | inhibition (MDA-MB-231 [15]) Dose-dependent effect
93 nM: IC50 (MCF7 [12]; MCF7, 72 h)

— ChEMBL document CHEMBL3352066, “Pharmacological characterization of actin-binding (-)-doliculide” (Bioorg Med Chem, 2014)
